Laboratory results published in the METLIN SMRT retention time set (Domingo-Almenara et al. 2019).

Assay: gradient 5% acetonitrile 3 min, to 50% in 2 min, to 85% in 15 min, held 3 min, 100 µL/min
Details: column: Zorbax Extend-C18 2.1 x 50 mm; eluents: water / acetonitrile, 0.1% formic acid
Procedure, shortened: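 The mobile phases were water and acetonitrile, each with 0.1% formic acid, pumped at 100 μL/min through a Zorbax Extend-C18 column (2.1 × 50 mm, 1.8 μm). Pure standards were injected as mixtures of ~100 molecules and detected by a quadrupole time-of-flight mass spectrometer in positive and negative ionization mode. Retention time came from computationally picked adduct peaks, each inspected by hand.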
`Cc1ccc(S(=O)(=O)NCCC(=O)O)cc1C` gave an RP-LC retention time of 639 s. `CCN1C=C(C(=O)OCc2c(C)noc2C)C(C)=NS1(=O)=O` showed an RP-LC retention time of 831 s. Work on `CN1c2ccc(Cl)cc2C(=O)NC12CCN(C(=O)NCc1ccc(F)cc1)CC2` yielded an RP-LC retention time of 785 s. Compound `O=C1CC(c2noc(CCCc3ccccc3)n2)CN1c1ccc(F)c(Cl)c1` (stereo not drawn) has an RP-LC retention time of 1150 s. In the case of `COc1ccc(F)cc1S(=O)(=O)N1CC(F)(F)C[C@H]1CN1CCc2ccccc2C1`, the RP-LC retention time is reported as 739 s. `CCc1noc2cc(-c3ccccc3)n(C)c(=O)c12` showed an RP-LC retention time of 950 s. With `O=S(=O)(NCc1ccccc1)c1ccc2c(c1)-c1oncc1CO2` the RP-LC retention time was 860 s. Compound `CCn1cc(CC(=O)NCCOC)c2cccnc21` has an RP-LC retention time of 576 s. Compound `Cc1ccc(CNC(=O)C2CCN(S(=O)(=O)c3cc(C(=O)N4CCOCC4)cs3)CC2)cc1` has an RP-LC retention time of 765 s. `CCn1c(=O)c(N2CCC(NC(=O)NCCc3ccccc3)CC2)nc2cccnc21` gave an RP-LC retention time of 824 s. Compound `Cc1cccc(OCc2nc(-c3ccc4c(c3)nnn4CCC(=O)N3CCOCC3)no2)c1` has an RP-LC retention time of 863 s. In the case of `O=S(=O)(NCC1CCCO1)c1cccc2cccnc12` (stereo not drawn), the RP-LC retention time is reported as 680 s. Work on `O=C(Nc1cccc(OCc2nnc(-c3ccccc3)o2)c1)c1ccccn1` yielded an RP-LC retention time of 954 s. In the case of `Cc1cccc(OCCCC(=O)Nc2nc(-c3ccc(Br)cc3)cs2)c1`, the RP-LC retention time is reported as 1260 s. For `Cc1c(C(=O)N2CCC(C)CC2)cnn1-c1ccc(-c2nc(C(C)(C)C)no2)cn1`, the RP-LC retention time was 1250 s. With `Brc1cccc(-c2nn3c(-c4ccccn4)nnc3s2)c1` the RP-LC retention time was 860 s. `COc1ccc(NC(=O)Cn2c(=O)c(CCC(=O)NCC(C)C)nc3ccccc32)cc1` gave an RP-LC retention time of 798 s. In the case of `O=C(CN1C(=O)C(C(=O)N2CCCCCC2)Sc2ccccc21)N1CCN(c2ccccn2)CC1` (stereo not drawn), the RP-LC retention time is reported as 650 s. `N#Cc1ccc(CN2CCC3(CC2)CN(C2CCC2)CC3CO)cc1` (stereo not drawn) gave an RP-LC retention time of 606 s. With `Cc1ccc(-c2nnc(-c3ccccc3)o2)cc1S(=O)(=O)N(C)C` the RP-LC retention time was 950 s. `COc1nccnc1N1CCC(N(C)C(=O)c2ccc3c(c2)OCO3)C1` (stereo not drawn) showed an RP-LC retention time of 694 s. Work on `COc1ccccc1CCC(=O)N1CCC2(CC1)NCc1ccccc1-n1ccnc12` yielded an RP-LC retention time of 623 s. Compound `Cc1nn(C)cc1CN1CCC[C@H]1c1nc(-c2ccccc2)n[nH]1` has an RP-LC retention time of 580 s. Compound `COc1ccc(-c2nc3c4cnn(-c5ccccc5Cl)c4ncn3n2)cc1OC` has an RP-LC retention time of 845 s. For `CCn1cnc(S(=O)(=O)N2CCC(C(=O)Nc3ccc(OC)c(Cl)c3)CC2)c1`, the RP-LC retention time was 724 s. For `CCOC(=O)c1ccc(NC(=O)Cn2cnc3cc4c(cc32)OCCO4)cc1`, the RP-LC retention time was 662 s. In the case of `CCNCc1cc(C(C)(C)C)c(O)c(C(C)(C)C)c1`, the RP-LC retention time is reported as 753 s. `O=C(NCCc1ccccc1)c1ccc2c(c1)CCN2C(=O)C1CC1` gave an RP-LC retention time of 814 s. `CCCN(CC1CCOC1)C(=O)c1ccc(F)cc1F` (stereo not drawn) showed an RP-LC retention time of 743 s. Work on `CCOC(=O)Cn1c(=O)c2c(nc3n2CC(C)CN3c2ccc(Br)cc2)n(C)c1=O` (stereo not drawn) yielded an RP-LC retention time of 1010 s. `CCN(CC)CCCNC(=O)CN1C(=O)CCn2nc(-c3cn(C)c4ccccc34)cc21` gave an RP-LC retention time of 613 s. With `O=C(NC1CCN(c2cc(-c3ccc(F)cc3)[nH]n2)C1)c1cc(F)ccc1Cl` (stereo not drawn) the RP-LC retention time was 685 s. With `CCn1cc(-c2nc(C(=O)Nc3ccc(F)cc3C)cs2)c2cccnc21` the RP-LC retention time was 1000 s. Work on `CC(=O)c1cccc(NC(=O)Cn2nc3c4cc(-c5ccc(Cl)cc5)nn4ccn3c2=O)c1` yielded an RP-LC retention time of 902 s. With `Cc1ccc(-c2nnc(-c3nc(N4CCCCCC4)c4ccccc4n3)o2)cc1` the RP-LC retention time was 750 s. Work on `CCC(=O)NCc1nc(-c2ccccc2Cl)no1` yielded an RP-LC retention time of 717 s. In the case of `COCCn1c(C2CCN(S(=O)(=O)c3ccc(Cl)cc3)C2)nc2cccnc21` (stereo not drawn), the RP-LC retention time is reported as 806 s. Work on `Cn1nc(C(=O)N2CC(c3nc(-c4cccs4)no3)C2)ccc1=O` yielded an RP-LC retention time of 639 s. Compound `CCN1C(=O)c2cccnc2Sc2cc(NC(=O)c3ccsc3)ccc21` has an RP-LC retention time of 796 s. For `COC(=O)Cn1c(-c2ccc(C)cc2)cnc1SCC(=O)Nc1nnc(C)s1`, the RP-LC retention time was 680 s. Work on `Cc1ccc(C(=O)N2CC=C(C(=O)NC3CC3)CC2)cc1C` yielded an RP-LC retention time of 797 s. `O=C(NCc1noc(C2CCCC2)n1)c1ccccc1` showed an RP-LC retention time of 796 s. `CCOC(=O)CNC(=O)N1CCN(Cc2nc3cc(C)ccc3o2)CC1` gave an RP-LC retention time of 616 s. Work on `CCC(C)NC(=O)C1CCN(c2cnc(N3CCOCC3)nc2)CC1` (stereo not drawn) yielded an RP-LC retention time of 638 s. `Cc1cc2nn(CC(=O)Nc3ccc(C(C)C)cc3)c(=O)n2c(-c2ccccc2)n1` gave an RP-LC retention time of 862 s. `O=C(NCc1cscn1)C1CCN(S(=O)(=O)c2cccc(C(F)(F)F)c2)CC1` gave an RP-LC retention time of 787 s. With `O=C(Cc1ccsc1)N1CCc2cc(-c3csc(C4CC4)n3)ccc21` the RP-LC retention time was 1120 s. In the case of `Cc1ccc(S(=O)(=O)Cc2noc(-c3ccc(Cl)cc3)n2)cc1`, the RP-LC retention time is reported as 1040 s. `COc1ccc(C(C)NC(=O)Cn2c(=O)n(-c3ccccc3)c3ncccc32)cc1OC` (stereo not drawn) gave an RP-LC retention time of 741 s. Work on `O=C(NCCCOc1cccc2cccnc12)c1c(F)cccc1F` yielded an RP-LC retention time of 574 s. With `CCOc1ccc(-n2c(=O)c3sccc3n(Cc3nc(-c4ccccc4OC)no3)c2=O)cc1` the RP-LC retention time was 910 s. For `O=C(Cn1ncccc1=O)NCc1ccco1`, the RP-LC retention time was 542 s. `CCOC(=O)C(C(=O)N1CCN(C)CC1)C1CCCCC1` (stereo not drawn) gave an RP-LC retention time of 629 s. In the case of `COc1cc(NC(=O)c2ncoc2-c2ccc(C)o2)cc(OC)c1OC`, the RP-LC retention time is reported as 920 s. Work on `Nc1cc(C2CCN(C(=O)c3ccc(F)c(F)c3)CC2)no1` yielded an RP-LC retention time of 680 s. With `O=c1c2cc(-c3cccs3)nn2cnn1Cc1nc(-c2ccc(Cl)cc2)no1` the RP-LC retention time was 1150 s. For `Cc1ccc(NC(=O)Cc2c(C)nn(-c3nc(-c4ccc(Cl)cc4)cs3)c2C)c(C)c1`, the RP-LC retention time was 1280 s. Work on `O=C(OCc1nc2ccccc2s1)c1ccc([N+](=O)[O-])o1` yielded an RP-LC retention time of 848 s. `CCN1C(=O)COc2ccc(-c3noc(Cc4ccc(Cl)cc4)n3)cc21` gave an RP-LC retention time of 1100 s. For `CCN1c2ccccc2C(=O)NC12CCN(C(=O)c1cccc(C)c1)CC2`, the RP-LC retention time was 805 s. `COc1ccc(NC(=O)N2CCC3(C2)C(=O)N(C)c2ccc(OC)cc23)cc1` (stereo not drawn) gave an RP-LC retention time of 732 s. `CCc1cccc(C)c1Nc1c(-c2ccc(Cl)cc2)nc2nc(C)cc(C)n12` showed an RP-LC retention time of 985 s. With `CCOc1ccccc1NC(=O)CN1C(=O)CC(c2cccs2)=Nc2ccccc21` the RP-LC retention time was 1050 s. Compound `O=C(NCC1CCS(=O)(=O)C1)c1nc2ccccc2s1` (stereo not drawn) has an RP-LC retention time of 659 s. Compound `CCOC(=O)C1=C(CN2CCc3ccccc3C2)NC(=O)NC1c1cccs1` (stereo not drawn) has an RP-LC retention time of 655 s. `Clc1cccc(-c2noc(-c3nc(-c4ccncc4)no3)n2)c1` gave an RP-LC retention time of 1130 s. `CN(Cc1cccnc1)C(=O)C12CCC=C1N(C1CCCC1)C(=O)CC2` (stereo not drawn) gave an RP-LC retention time of 577 s. `CCN1CCN(c2ncc(N3CCC(C(=O)NCCN4CCCCC4C)CC3)cn2)CC1` (stereo not drawn) showed an RP-LC retention time of 537 s.
